Publication PMC7565406, “BMS-599626, a Highly Selective Pan-HER Kinase Inhibitor, Antagonizes ABCG2-Mediated Drug Resistance” (Cancers, 2020)

What was measured:
ABCG2 [1] = biological target: T1, ABCG2 (Homo sapiens, UniProt Q9UNQ0); assay: radiolabelled drug efflux in ABCG2-overexpressing versus parental cells; assay type: cell-based; set-up: wild-type ABCG2 (R482) in HEK293 cells; NCI-H460/MX20 cells
T1 sequence (Q9UNQ0 1-655): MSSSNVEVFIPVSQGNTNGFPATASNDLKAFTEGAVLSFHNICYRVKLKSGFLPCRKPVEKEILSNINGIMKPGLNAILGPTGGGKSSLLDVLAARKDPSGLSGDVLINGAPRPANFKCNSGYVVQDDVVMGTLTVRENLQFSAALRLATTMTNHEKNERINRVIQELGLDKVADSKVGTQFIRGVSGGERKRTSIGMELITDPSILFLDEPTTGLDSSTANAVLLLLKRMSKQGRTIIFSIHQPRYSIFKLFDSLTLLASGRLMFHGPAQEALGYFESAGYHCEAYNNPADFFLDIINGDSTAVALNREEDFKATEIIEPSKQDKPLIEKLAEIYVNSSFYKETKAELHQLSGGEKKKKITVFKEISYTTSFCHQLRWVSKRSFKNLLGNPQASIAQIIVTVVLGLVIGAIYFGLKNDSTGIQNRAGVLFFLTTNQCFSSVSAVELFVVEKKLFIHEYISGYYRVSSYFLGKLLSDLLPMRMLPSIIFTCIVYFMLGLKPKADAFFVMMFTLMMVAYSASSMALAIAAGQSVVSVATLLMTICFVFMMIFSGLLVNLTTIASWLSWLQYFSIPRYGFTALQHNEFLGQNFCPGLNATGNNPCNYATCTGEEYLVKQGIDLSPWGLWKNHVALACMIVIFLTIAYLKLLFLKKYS

ABCG2 [2] = biological target: T1, ABCG2; assay: vanadate-sensitive ATPase assay in ABCG2 membrane vesicles; supported by [3H]-mitoxantrone accumulation and efflux in cells; assay type: biochemical; set-up: membrane vesicles prepared from ABCG2 expressing High-five insect cells

## O=C1c2c(O)ccc(O)c2C(=O)c2c(NCCNCCO)ccc(NCCNCCO)c21 [mitoxantrone]
ABCG2 [1]
  radiolabelled drug efflux in ABCG2-overexpressing versus parental cells: ABCG2-overexpressing cell lines showed a significantly higher efflux activity compared to parental cell lines

## Cc1c(NC(=O)OC[C@@H]2COCCN2)cn2ncnc(Nc3ccc4c(cnn4Cc4cccc(F)c4)c3)c12 [BMS-599626, [4-[[1-(3-fluorophenyl)methyl]-1H-indazol5-ylamino]-5-methylpyrrolo [2,1-f][1,2,4]triazin6-yl]carbamic acid, (3S)-3-morpholinylmethyl ester]
ABCG2 [2]
  vanadate-sensitive ATPase assay in ABCG2 membrane vesicles; supported by [3H]-mi: 7.6 fold inhibition of ATPase activity at 3 µM
